Drawing on patent publication US20250263753A1, “BRIDGED CYCLE-BASED INHIBITORS OF DNA-DEPENDENT PROTEIN KINASE AND COMPOSITIONS AND APPLICATION IN GENE EDITING” (Juno Therapeutics, Inc., priority 2023, published 2025), this text covers IC50 for 17 compounds.

One experiment has as its target ATM (Homo sapiens (Human), UniProt Q13315). The experiment is described as follows: ATM biochemical assay (Reaction Biology HTRF kinase assay, 10 μM ATP). As for the experimental part:
Ataxia-Telangiectasia Mutated (ATM) Biochemical Assay Using Reaction Biology's HTRF Kinase Assay Protocol:
The assay detects kinase activity by antibody based HTRF assay. The GST-tagged p53 protein serves as substrate and Eu-labeled-antibody with specific phosphorylation site binds upon phosphorylation which is monitored by HTRF from the anti-GST-d2.
Reagent: Reaction buffer; 50 mM Hepes (pH 7.5), 150 mM NaCl, 10 mM MnCl2, 1% Glycerol, 0.01% Brij35, 1 mM DTT, 1% DMSO.
Substrate: Human p53 (aa2-393), RBC produced in E. coli, N-terminal GST-Tag, MW=70.42 kDa.
Detection; MAb Anti-p53-pS15-Eu cryptate, CisBio cat #61P08KAZ; MAb Anti GST-d2
Reaction Procedure: 1. Deliver 2× Enzyme in wells of reaction plate except No E control wells. Add buffer instead; 2. Deliver compounds in 100% DMSO into the kinase reaction mixture by Acoustic technology (Echo550; nanoliter range), incubate for 30 min at room temperature; 3. Deliver 2× substrate+ATP mixture into the reaction mixture to initiate the reaction; 4. Incubate for 2 hours at room temperature.
HTRF Detection: 1. Deliver 2× Stop/Detection mixture and incubate for 2 hours to overnight in the dark. 2. HTRF measurement (Ex/Em1/Em2=320/615/665 nm) in EnVision.

In the next experiment the target is DNA-PK (Homo sapiens (Human), UniProt P78527). The experiment is described as follows: DNA-PK biochemical assay (Reaction Biology HotSpot kinase assay, 10 μM ATP). As for the experimental part:
DNA-PK Biochemical Assay Using Reaction Biology's HotSpot Kinase Assay Protocol:
Reagent: Base Reaction buffer; 20 mM Hepes (pH 7.5), 10 mM MgCl2, 1 mM EGTA, 0.01% Brij35, 0.02 mg/ml BSA, 0.1 mM Na3VO4, 2 mM DTT, 1% DMSO Required cofactors are added individually to each kinase reaction.
Reaction Procedure: 1. Prepare substrate in freshly prepared Reaction Buffer; 2. Deliver any required cofactors to the substrate solution above; 3. Deliver kinase into the substrate solution and gently mix; 4. Deliver compounds in 100% DMSO into the kinase reaction mixture by Acoustic technology (Echo550; nanoliter range), incubate for 20 min at room temperature; 5. Deliver 33P-ATP into the reaction mixture to initiate the reaction; 6. Incubate for 2 hours at room temperature; 7. Detect kinase activity by P81 filter-binding method.

The target in experiment [1] is PI3Kα (His-PIK3CA/PIK3R1, p110 alpha/p85 alpha) (Homo sapiens (Human), UniProt P42336). The experiment is described as follows: PI3Kα biochemical assay (HTRF/FRET probe). The format is binding. Conditions: class symbol. As for the experimental part:
Phosphoinositide 3-kinase α (PI3Kα) Biochemical Assay: A solution was prepared containing 0.2 nM Anti-HIS-Terbium (Cisbio, 64CUSTAZU), 3.7 nM designed-probe and 1.0 nM His-PIK3CA/PIK3R1 (p110 alpha/p85 alpha) in FRET Buffer (20 mM HEPES, 10 mM MgCl2, 0.015% Brij-35, 4 mM DTT, 0.05 mg/mL BSA).
In general terms: Time-resolved FRET reads energy transfer from a long-lived donor to a nearby acceptor.

The target of experiment [2] is PI3Kδ (His-PIK3CD/PIK3R1, p110 delta/p85 alpha) (Homo sapiens (Human), UniProt O00329). Kind of experiment: PI3Kδ biochemical assay (HTRF/FRET probe). It counts as binding. Conditions: class symbol. As to the method:
Phosphoinositide 3-kinase (PI3K) Biochemical Assay: A solution was prepared containing 0.2 nM Anti-HIS-Terbium (Cisbio, 64CUSTAZU), 40 nM designed-probe and 1.0 nM His-PIK3CD/PIK3R1 (p110 delta/p85 alpha) in FRET Buffer (20 mM HEPES, 10 mM MgCl2, 0.015% Brij-35, 4 mM DTT, 0.05 mg/mL BSA).

[3] abbreviates: read-out: DNA-PK HotSpot 10 μM ATP IC50, class symbol.
Where [4] appears, read: read-out: ATM HTRF 10 μM ATP IC50, class symbol.

Like-named read-outs stand apart in the source and are kept apart here.

PI3Kδ (His-PIK3CD/PIK3R1, p110 delta/p85 alpha), sequence (O00329 whole entry, species assumed): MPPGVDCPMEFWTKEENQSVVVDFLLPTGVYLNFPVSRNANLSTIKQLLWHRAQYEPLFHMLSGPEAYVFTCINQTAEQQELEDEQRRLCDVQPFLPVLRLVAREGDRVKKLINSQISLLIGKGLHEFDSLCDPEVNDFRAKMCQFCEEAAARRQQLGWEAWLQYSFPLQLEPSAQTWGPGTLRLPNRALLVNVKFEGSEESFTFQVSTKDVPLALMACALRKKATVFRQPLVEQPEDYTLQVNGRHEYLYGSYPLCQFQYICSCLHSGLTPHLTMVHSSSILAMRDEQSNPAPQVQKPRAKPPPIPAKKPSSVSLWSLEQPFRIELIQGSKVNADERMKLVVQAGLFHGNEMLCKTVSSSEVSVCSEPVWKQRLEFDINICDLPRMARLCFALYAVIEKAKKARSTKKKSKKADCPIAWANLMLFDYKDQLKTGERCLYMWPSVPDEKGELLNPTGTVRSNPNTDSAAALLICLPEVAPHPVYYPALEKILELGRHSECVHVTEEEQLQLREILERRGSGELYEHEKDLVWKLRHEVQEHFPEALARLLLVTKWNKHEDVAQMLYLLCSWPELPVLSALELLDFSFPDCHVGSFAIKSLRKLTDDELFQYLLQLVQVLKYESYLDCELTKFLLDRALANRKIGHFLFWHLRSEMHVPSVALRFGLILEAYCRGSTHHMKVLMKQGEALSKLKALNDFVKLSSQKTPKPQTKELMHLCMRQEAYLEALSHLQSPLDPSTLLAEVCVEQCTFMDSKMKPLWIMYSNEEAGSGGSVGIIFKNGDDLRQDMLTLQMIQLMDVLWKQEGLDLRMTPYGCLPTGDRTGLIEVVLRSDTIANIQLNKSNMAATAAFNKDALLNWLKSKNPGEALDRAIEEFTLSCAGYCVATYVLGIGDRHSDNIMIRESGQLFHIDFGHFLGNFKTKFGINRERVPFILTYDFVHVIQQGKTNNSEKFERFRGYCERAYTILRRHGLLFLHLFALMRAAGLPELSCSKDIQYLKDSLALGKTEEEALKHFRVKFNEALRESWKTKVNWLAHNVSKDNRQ
PI3Kδ (His-PIK3CD/PIK3R1, p110 delta/p85 alpha), sequence (P27986 whole entry partner, species assumed): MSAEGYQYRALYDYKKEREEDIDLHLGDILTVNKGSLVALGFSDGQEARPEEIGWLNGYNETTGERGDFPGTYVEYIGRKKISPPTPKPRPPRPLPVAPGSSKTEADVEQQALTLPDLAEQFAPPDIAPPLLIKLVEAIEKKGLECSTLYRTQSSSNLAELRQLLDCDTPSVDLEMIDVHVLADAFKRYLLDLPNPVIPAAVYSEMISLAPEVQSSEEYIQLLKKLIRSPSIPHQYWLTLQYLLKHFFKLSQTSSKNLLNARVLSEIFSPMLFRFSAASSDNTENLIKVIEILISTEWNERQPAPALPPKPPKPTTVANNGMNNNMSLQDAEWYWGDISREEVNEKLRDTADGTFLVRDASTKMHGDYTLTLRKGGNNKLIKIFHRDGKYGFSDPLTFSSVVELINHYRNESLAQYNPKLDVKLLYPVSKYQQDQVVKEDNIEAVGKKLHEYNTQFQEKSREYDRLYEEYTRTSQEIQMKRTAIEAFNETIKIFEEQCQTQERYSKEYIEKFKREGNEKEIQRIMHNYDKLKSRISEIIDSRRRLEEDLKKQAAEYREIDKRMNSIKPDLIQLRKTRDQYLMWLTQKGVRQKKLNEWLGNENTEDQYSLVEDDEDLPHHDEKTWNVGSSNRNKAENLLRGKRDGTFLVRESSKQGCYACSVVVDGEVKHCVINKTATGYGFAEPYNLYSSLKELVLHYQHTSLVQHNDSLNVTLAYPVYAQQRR
PI3Kα (His-PIK3CA/PIK3R1, p110 alpha/p85 alpha), sequence (P42336 whole entry, species assumed): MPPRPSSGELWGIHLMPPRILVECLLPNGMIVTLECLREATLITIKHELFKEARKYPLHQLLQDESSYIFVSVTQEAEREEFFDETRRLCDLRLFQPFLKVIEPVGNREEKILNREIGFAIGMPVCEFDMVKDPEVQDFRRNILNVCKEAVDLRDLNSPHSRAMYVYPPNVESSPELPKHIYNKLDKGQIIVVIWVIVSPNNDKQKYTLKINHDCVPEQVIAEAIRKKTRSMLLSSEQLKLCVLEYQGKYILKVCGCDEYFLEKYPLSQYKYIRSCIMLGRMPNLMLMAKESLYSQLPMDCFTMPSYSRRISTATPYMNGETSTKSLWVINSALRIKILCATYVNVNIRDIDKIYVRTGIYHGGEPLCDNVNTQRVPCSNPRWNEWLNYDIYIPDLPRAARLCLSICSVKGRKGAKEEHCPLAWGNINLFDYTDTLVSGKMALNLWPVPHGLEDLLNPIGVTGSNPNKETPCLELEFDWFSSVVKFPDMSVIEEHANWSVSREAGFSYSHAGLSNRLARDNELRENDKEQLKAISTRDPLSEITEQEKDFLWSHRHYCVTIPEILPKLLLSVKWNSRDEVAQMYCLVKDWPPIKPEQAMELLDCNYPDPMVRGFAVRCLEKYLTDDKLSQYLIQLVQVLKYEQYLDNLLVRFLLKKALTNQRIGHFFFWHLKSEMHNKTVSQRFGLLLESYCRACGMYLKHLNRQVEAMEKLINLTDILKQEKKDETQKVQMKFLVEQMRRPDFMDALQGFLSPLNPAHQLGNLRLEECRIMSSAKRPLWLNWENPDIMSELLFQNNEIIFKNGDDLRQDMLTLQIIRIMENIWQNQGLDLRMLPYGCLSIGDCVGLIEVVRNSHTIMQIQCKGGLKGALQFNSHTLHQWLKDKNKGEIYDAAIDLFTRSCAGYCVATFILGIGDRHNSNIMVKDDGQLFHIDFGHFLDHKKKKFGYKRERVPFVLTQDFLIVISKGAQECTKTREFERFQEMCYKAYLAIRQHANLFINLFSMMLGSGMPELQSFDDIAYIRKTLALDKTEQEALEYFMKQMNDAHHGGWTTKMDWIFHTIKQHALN
PI3Kα (His-PIK3CA/PIK3R1, p110 alpha/p85 alpha), sequence (P27986 whole entry partner, species assumed): as the sequence (P27986 whole entry partner, species assumed) above

For the compound `COC12CCC(n3c(=O)n(C)c4cnc(Nc5cn6ncnc6cc5C)nc43)(C1)C2` [Compound 29, 9-(4-methoxybicyclo[2.1.1]hexan-1-yl)-7-methyl-2-((7-methyl-[1,2,4]triazolo[1,5-a]pyridin-6-yl)amino)-7,9-dihydro-8H-purin-8-one], the IC50 – broadly, the concentration that inhibits the measured activity by half – on ATM (class symbol) was 100 to 1000 nM; on DNA-PK (class symbol), 1 to 10 nM; in experiment [1], not below 1000 nM; in experiment [2], not below 1000 nM.

As to `COC12CCC(n3c(=O)n(C)c4cnc(Nc5cc6c(cc5C)OCCO6)nc43)(CC1)C2` [Compound 10, 9-(4-methoxybicyclo[2.2.1]heptan-1-yl)-7-methyl-2-((7-methyl-2,3-dihydrobenzo[b][1,4]dioxin-6-yl)amino)-7,9-dihydro-8H-purin-8-one], the IC50 on ATM (class symbol) was 100 to 1000 nM; on DNA-PK (setting [3]), less than 1 nM; in experiment [1], 10 to 100 nM; in experiment [2], not below 1000 nM.

For the compound `Cc1cc2c(cc1Nc1ncc3c(n1)n(C14CC(CC#N)(C1)C4)c(=O)n3C)OCO2` [Compound 23, 2-(3-(7-methyl-2-((6-methylbenzo[d][1,3]dioxol-5-yl)amino)-8-oxo-7,8-dihydro-9H-purin-9-yl)bicyclo[1.1.1]pentan-1-yl)acetonitrile], the IC50 on ATM (class symbol) is 10 to 100 nM; against DNA-PK (class symbol), 1 to 10 nM; in experiment [1], 100 to 1000 nM; in experiment [2] it was not below 1000 nM.

As to `Cc1cc2c(cc1Nc1ncc3c(n1)N(C14CC(F)(C1)C4)C(=O)C31CC1)OCO2` [Compound 76, 7′-(3-fluorobicyclo[1.1.1]pentan-1-yl)-2′-((6-methylbenzo[d][1,3]dioxol-5-yl)amino)spiro[cyclopropane-1,5′-pyrrolo[2,3-d]pyrimidin]-6′(7′H)-one], the IC50 on ATM (setting [4]) is not below 1000 nM; against DNA-PK (class symbol), 1 to 10 nM; in experiment [1] it was not below 1000 nM; in experiment [2], not below 1000 nM.

As to `Cc1cc2c(cc1Nc1ncc3c(n1)N(C14CC(F)(C1)C4)CC(=O)N3C)OCO2` [Compound 56, 8-{3-Fluorobicyclo[1.1.1]pentan-1-yl}-5-methyl-2-[(6-methyl-2H-1,3-benzodioxol-5-yl)amino]-5,6,7,8-tetrahydropteridin-6-one], the half-inhibitory concentration (IC50) on ATM (setting [4]) was not below 1000 nM; on DNA-PK (class symbol), 10 to 100 nM; in experiment [1] it was not below 1000 nM; in experiment [2], not below 1000 nM.

In the case of `COC12CCC(n3c(=O)n(C)c4cnc(Nc5cc(F)c(-c6cnco6)cc5C)nc43)(C1)C2` [Compound 41, 2-((5-fluoro-2-methyl-4-(oxazol-5-yl)phenyl)amino)-9-(4-methoxybicyclo[2.1.1]hexan-1-yl)-7-methyl-7,9-dihydro-8H-purin-8-one], the IC50 was 1 to 10 nM at ATM (class symbol), 1 to 10 nM at DNA-PK (class symbol), 100 to 1000 nM in experiment [1] and not below 1000 nM in experiment [2].

As to `Cc1cc2c(cc1Nc1ncc3c(n1)n(C14CCC(O)(CC1)C4)c(=O)n3C)OCCO2` [Compound 5, 9-(4-hydroxybicyclo[2.2.1]heptan-1-yl)-7-methyl-2-((7-methyl-2,3-dihydrobenzo[b][1,4]dioxin-6-yl)amino)-7,9-dihydro-8H-purin-8-one], the IC50 was 10 to 100 nM against ATM (class symbol), less than 1 nM on DNA-PK (setting [3]), 100 to 1000 nM in experiment [1] and not below 1000 nM in experiment [2].

Consider `Cc1cc2c(cc1Nc1ncc3c(n1)n(C14CC(F)(C1)C4)c(=S)n3C)OCO2` [Compound 35, 9-(3-fluorobicyclo[1.1.1]pentan-1-yl)-7-methyl-2-((6-methylbenzo[d][1,3]dioxol-5-yl)amino)-7,9-dihydro-8H-purine-8-thione], for which the IC50 at ATM (setting [4]) was not below 1000 nM; on DNA-PK (class symbol), 100 to 1000 nM; in experiment [1], not below 1000 nM; in experiment [2] it was not below 1000 nM.

On to `Cc1cc2ncnn2cc1Nc1ncc2c(n1)n(C13CC(F)(C1)C3)c(=S)n2C` [Compound 34, 9-(3-fluorobicyclo[1.1.1]pentan-1-yl)-7-methyl-2-((7-methyl-[1,2,4]triazolo[1,5-a]pyridin-6-yl)amino)-7,9-dihydro-8H-purine-8-thione], for which the IC50 at ATM (setting [4]) was not below 1000 nM; at DNA-PK (class symbol), 10 to 100 nM; in experiment [1], not below 1000 nM; in experiment [2], 100 to 1000 nM.

Regarding `COC12CCC(n3c(=O)n(C)c4cnc(Nc5cc(F)c(C(N)=O)cc5C)nc43)(C1)C2` [Compound 40, 2-fluoro-4-((9-(4-methoxybicyclo[2.1.1]hexan-1-yl)-7-methyl-8-oxo-8,9-dihydro-7H-purin-2-yl)amino)-5-methylbenzamide], the IC50 against ATM (class symbol) was 100 to 1000 nM; against DNA-PK (class symbol), 1 to 10 nM; in experiment [1], 100 to 1000 nM; in experiment [2], not below 1000 nM.

As to `Cc1cc2nccnc2cc1Nc1ncc2c(n1)N(C13CCC(O)(CC1)C3)CC(=O)N2C` [Compound 59, 8-(4-hydroxybicyclo[2.2.1]heptan-1-yl)-5-methyl-2-((7-methylquinoxalin-6-yl)amino)-7,8-dihydropteridin-6(5H)-one], the IC50 is 10 to 100 nM on ATM (class symbol), less than 1 nM at DNA-PK (setting [3]), 100 to 1000 nM in experiment [1] and 100 to 1000 nM in experiment [2].

As for `Cc1cc(-c2cnn(C)c2)ncc1Nc1ncc2c(n1)N(C13CC(F)(C1)C3)C(=O)C21CC1` [Compound 75, 7′-(3-fluorobicyclo[1.1.1]pentan-1-yl)-2′-((4-methyl-6-(1-methyl-1H-pyrazol-4-yl)pyridin-3-yl)amino)spiro[cyclopropane-1,5′-pyrrolo[2,3-d]pyrimidin]-6′(7′H)-one], the IC50 against ATM (class symbol) is 10 to 100 nM; on DNA-PK (class symbol), 1 to 10 nM; in experiment [1] it was 100 to 1000 nM; in experiment [2] it was not below 1000 nM.

With `Cc1cc2ncccc2cc1Nc1ncc2c(n1)N(C13CC(F)(C1)C3)CC(=O)N2C` [Compound 57, 8-(3-fluorobicyclo[1.1.1]pentan-1-yl)-5-methyl-2-((7-methylquinolin-6-yl)amino)-7,8-dihydropteridin-6(5H)-one], the IC50 is 10 to 100 nM on ATM (class symbol), 1 to 10 nM at DNA-PK (class symbol), 100 to 1000 nM in experiment [1] and 100 to 1000 nM in experiment [2].

In the case of `COC12CCC(n3c(=O)n(C)c4cnc(Nc5cc6c(cc5C)OCO6)nc43)(CC1)CC2` [Compound 26, 9-(4-methoxybicyclo[2.2.2]octan-1-yl)-7-methyl-2-((6-methylbenzo[d][1,3]dioxol-5-yl)amino)-7,9-dihydro-8H-purin-8-one], the IC50 on ATM (class symbol) was 10 to 100 nM; at DNA-PK (setting [3]) it was less than 1 nM; in experiment [1], 100 to 1000 nM; in experiment [2] it was not below 1000 nM.

Consider `Cc1cc2nsnc2cc1Nc1ncc2c(n1)N(C13CCC(O)(CC1)C3)CC(=O)N2C` [Compound 55, 8-{4-Hydroxybicyclo[2.2.1]heptan-1-yl}-5-methyl-2-[(6-methyl-2,1,3-benzothiadiazol-5-yl)amino]-5,6,7,8-tetrahydropteridin-6-one], for which the IC50 is 1 to 10 nM at ATM (class symbol), less than 1 nM at DNA-PK (setting [3]), 10 to 100 nM in experiment [1] and 100 to 1000 nM in experiment [2].

In the case of `Cc1cc2nccnc2cc1Nc1ncc2c(n1)n(C13CCC(O)(CC1)C3)c(=O)n2C` [Compound 4, 9-(4-hydroxybicyclo[2.2.1]heptan-1-yl)-7-methyl-2-((7-methylquinoxalin-6-yl)amino)-7,9-dihydro-8H-purin-8-one], the IC50 against ATM (class symbol) is 10 to 100 nM; on DNA-PK (setting [3]), less than 1 nM; in experiment [1] it was 100 to 1000 nM; in experiment [2] it was 100 to 1000 nM.

For the compound `COC12CCC(N3CC(=O)N(C)c4cnc(Nc5cc6c(cc5C)OCO6)nc43)(CC1)C2` [Compound 63, 8-(4-methoxybicyclo[2.2.1]heptan-1-yl)-5-methyl-2-((6-methylbenzo[d][1,3]dioxol-5-yl)amino)-7,8-dihydropteridin-6(5H)-one], the IC50 was 100 to 1000 nM against ATM (class symbol), 1 to 10 nM at DNA-PK (class symbol), not below 1000 nM in experiment [1] and 100 to 1000 nM in experiment [2].
